# Results as given in patent US8637511B2, “Aminopyrimidines useful as kinase inhibitors” (Vertex Pharmaceuticals Incorporated, priority 2005, dated 2014).
# pIC50, pKi: −log10 of the molar value. Where “and” joins values, the source holds several entries; their conditions need not be identical. Equal values may be shown once. Read-outs that look alike come from different tables or passages of the source.
# Assays:
# Aurora-1 (Aurora B) = Aurora-1 (Aurora B) (Homo sapiens, UniProt Q96GD4); assay: Aurora-1 (Aurora B) inhibition assay (radiometric); assay type: biochemical; conditions: read-out: Aurora B kinase Ki value
# Aurora-1 (Aurora B), sequence (Q96GD4 whole entry): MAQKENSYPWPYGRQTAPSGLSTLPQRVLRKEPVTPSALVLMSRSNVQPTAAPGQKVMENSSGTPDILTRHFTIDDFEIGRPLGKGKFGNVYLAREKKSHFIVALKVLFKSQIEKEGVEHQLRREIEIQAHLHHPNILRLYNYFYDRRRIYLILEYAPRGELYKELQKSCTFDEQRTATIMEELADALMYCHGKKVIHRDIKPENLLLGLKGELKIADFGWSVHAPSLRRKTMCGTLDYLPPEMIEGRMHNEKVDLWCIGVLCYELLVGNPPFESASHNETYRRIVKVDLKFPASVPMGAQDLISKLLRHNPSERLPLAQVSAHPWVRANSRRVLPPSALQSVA
# Method: An assay buffer solution was prepared which consisted of 25 mM HEPES (pH 7.5), 10 mM MgCl2, 0.1% BSA and 10% glycerol. […] To 22 μL of the Aurora-B solution, in a 96-well plate, was added 2 μl of a compound stock solution in DMSO and the mixture allowed to equilibrate for 10 minutes at 25° C. The enzyme reaction was initiated by the addition of 16 μl stock [γ-^33P]-ATP solution (˜20 nCi/μL) prepared in assay buffer, to a final assay concentration of 800 μM. The reaction was stopped after 3 hours by the addition of 16 μL 500 mM phosphoric acid and the levels of ^33P incorporation into the peptide substrate were determined by the following method.
# A phosphocellulose 96-well plate (Millipore, Cat no. MAPHNOB50) was pre-treated with 100 μL of a 100 mM phosphoric acid prior to the addition of the enzyme reaction mixture (40 μL). The solution was left to soak on to the phosphocellulose membrane for 30 minutes and the plate subsequently washed four times with 200 μL of a 100 mM phosphoric acid. […] Levels of non-enzyme catalyzed background radioactivity were determined by adding 16 μL of the 500 mM phosphoric acid to control wells, containing all assay components (which acts to denature the enzyme), prior to the addition of the [γ-^33P]-ATP solution. Levels of enzyme catalyzed. ^33P incorporation were calculated by subtracting mean background counts from those measured at each inhibitor concentration. […] Ki values were calculated from initial rate data by non-linear regression using the Prism software package (Prism 3.0, Graphpad Software, San Diego, Calif.).
# Colo205 cells = assay: Analysis of cell proliferation and viability; assay type: cell-based; conditions: Homo sapiens, COLO 205, Colo205 cells, read-out: IC50 value
# Method: Colo205 cells were seeded in 96 well plates and serially diluted compound was added to the wells in duplicate. Control groups included untreated cells, the compound diluent (0.1% DMSO alone) and culture medium without cells.
# To measure proliferation, 3 h prior to the end of the experiment 0.5 μCi of 3H thymidine was added to each well. Cells were then harvested and the incorporated radioactivity counted on a Wallac microplate beta-counter. Cell viability was assessed using Promega CellTiter 96AQ to measure MTS conversion. Dose response curves were calculated using either Prism 3.0 (GraphPad) or SoftMax Pro 4.3.1 LS (Molecular Devices) software.
# Aurora-2 (Aurora A) = target: T1, Aurora-2 (Aurora A) (Homo sapiens, UniProt O14965); assay: Aurora-2 (Aurora A) inhibition assay, coupled enzyme; assay type: biochemical
# T1 sequence (O14965 1-403): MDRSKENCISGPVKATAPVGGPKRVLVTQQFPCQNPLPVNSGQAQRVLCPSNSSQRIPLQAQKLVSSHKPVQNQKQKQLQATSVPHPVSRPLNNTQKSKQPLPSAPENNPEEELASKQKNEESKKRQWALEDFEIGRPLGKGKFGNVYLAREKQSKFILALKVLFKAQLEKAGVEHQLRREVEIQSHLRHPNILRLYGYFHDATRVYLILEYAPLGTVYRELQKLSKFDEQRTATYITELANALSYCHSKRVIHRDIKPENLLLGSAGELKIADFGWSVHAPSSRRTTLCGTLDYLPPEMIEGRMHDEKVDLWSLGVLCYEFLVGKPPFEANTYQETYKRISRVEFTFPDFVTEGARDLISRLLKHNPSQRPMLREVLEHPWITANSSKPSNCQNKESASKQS
# Method: Assays were carried out in a mixture of 100 mM Hepes (pH7.5), 10 mM MgCl2, 1 mM DTT, 25 mM NaCl, 2.5 mM phosphoenolpyruvate, 300 μM NADH, 30 μg/ml pyruvate kinase and 10 μg/ml lactate dehydrogenase. […] Assays were carried out at 30° C. and in the presence of 40 nM Aurora-2.
# The plate was preincubated for 10 minutes at 30° C. and the reaction initiated by addition of 10 μl of Aurora-2. Initial reaction rates were determined with a Molecular Devices SpectraMax Plus plate reader over a 10 minute time course. IC50 and Ki data were calculated from non-linear regression analysis using the Prism software package (GraphPad Prism version 3.0cx for Macintosh, GraphPad Software, San Diego Calif., USA).
# [1] = read-out: Aurora A kinase Ki value
pKi (Aurora-1 (Aurora B)),pIC50 (Colo205 cells; incubated for 96 hours),pKi (Aurora-2 (Aurora A)),pKi (Aurora-2 (Aurora A); [1]),Compound,pIC50 (Colo205 cells; incubated for 72 hours)
7.30 to 8.00 and > 7.60,6.00 to 7.30,6.70 to 8.30,–,Cc1cc(Nc2cc(N3CCC3)nc(Sc3ccc(C(=O)NC4CC4)cc3)n2)n[nH]1 [Compound 18],–
7.30 to 8.00 and > 7.60,6.00 to 7.30,–,≥ 9.00,Cc1cc(Nc2cc(N3CCC3)nc(Sc3ccc(NC(=O)Cc4ccc(Cl)cc4)cc3)n2)n[nH]1 [Compound 36],–
5.70 to 7.30,6.00 to 7.30,–,6.70 to 8.30,Cc1cc(Nc2cc(N3CCC3)nc(Sc3ccc(NC(=O)c4sc(C)nc4C)cc3)n2)n[nH]1 [Compound 41],–
–,6.00 to 7.30,–,–,Cc1cc(Nc2cc(N3CCC3)nc(Sc3ccc(NC(=O)c4cccc(Cl)c4Cl)cc3)n2)n[nH]1 [Compound 42],–
7.30 to 8.00,6.00 to 7.30,–,8.30 to 9.00,Cc1cc(Nc2cc(N3CCC3)nc(Sc3ccc(NC(=O)c4sccc4Cl)cc3)n2)n[nH]1 [Compound 43],–
7.30 to 8.00,6.00 to 7.30,–,–,Cc1cc(Nc2cc(N3CCC3)nc(Sc3ccc(NC(=O)c4cc(F)ccc4F)cc3)n2)n[nH]1 [Compound 45],–
5.70 to 7.30,< 6.00,–,6.70 to 8.30,Cc1cc(Nc2cc(N3CCC3)nc(Sc3ccc(-n4ccccc4=O)cc3)n2)[nH]n1 [Compound 47],–
5.70 to 7.30,< 6.00,–,–,Cc1cc(Nc2cc(C(=O)N3CCC3)nc(Sc3ccc(NC(=O)c4ccccc4Cl)cc3)n2)n[nH]1 [Compound 62],–
7.30 to 8.00,< 6.00,–,6.70 to 8.30,Cc1cc(Nc2cc(N3CCC3)nc(Sc3ccc(NC(=O)c4cccnc4C)cc3)n2)[nH]n1 [Compound 63],–
5.70 to 7.30,≥ 7.30,–,8.30 to 9.00,CCC(=O)Nc1ccc(Sc2nc(Nc3cc(C)n[nH]3)cc(N3CC(N4CCC4)C3)n2)cc1 [Compound 70],–
5.70 to 7.30,< 6.00,–,6.70 to 8.30,CCN(CC)C(=O)Nc1ccc(Sc2nc(Nc3cc(C)[nH]n3)cc(N3CCC3)n2)cc1 [Compound 72],–
–,≥ 7.30,–,–,CCC(=O)Nc1ccc(Sc2nc(Nc3cc(C)n[nH]3)cc(N3CC(O)(CC(C)(C)C)C3)n2)cc1 [Compound 84],–
≥ 8.00,6.00 to 7.30,–,≥ 9.00,CCC(=O)Nc1ccc(Sc2nc(Nc3cc(C)n[nH]3)cc(N3CC(O)(c4ccccc4)C3)n2)cc1 [Compound 86],–
5.70 to 7.30,6.00 to 7.30,–,≥ 9.00,CCC(=O)Nc1ccc(Sc2nc(Nc3cc(C)n[nH]3)cc(N3CC(O)(c4ccccc4C)C3)n2)cc1 [Compound 93],–
–,6.00 to 7.30,–,–,CCC(=O)Nc1ccc(Sc2nc(Nc3cc(C)n[nH]3)cc(N3CC(O)(CC)C3)n2)cc1 [Compound 98],–
≥ 8.00,≥ 7.30,–,≥ 9.00,CCC(=O)Nc1ccc(Sc2nc(Nc3cc(C)n[nH]3)cc(N3CC(O)(C4CCCCC4)C3)n2)cc1 [Compound 101],–
≥ 8.00,6.00 to 7.30,–,≥ 9.00,COC(=O)c1ccc(Sc2nc(Nc3cc(C4CC4)[nH]n3)cc(N3CC(O)(C4CC4)C3)n2)cc1 [Compound 106],–
7.30 to 8.00,≥ 7.30,–,≥ 9.00,CC(=O)OC1(C2CC2)CN(c2cc(Nc3cc(C)n[nH]3)nc(Sc3ccc(NC(=O)C4CC4)cc3)n2)C1 [Compound 107],–
≥ 8.00,≥ 7.30,–,≥ 9.00,CCCCOC1(C2CC2)CN(c2cc(Nc3cc(C)n[nH]3)nc(Sc3ccc(NC(=O)C4CC4)cc3)n2)C1 [Compound 111],–
–,–,–,–,COc1cccc(C(=O)Nc2ccc(Sc3nc(Nc4cc(C)n[nH]4)cc(N4CCC4)n3)cc2)c1 [Compound 116],< 6.70
